# Experimental data reported in ChEMBL document CHEMBL5500324, “The potential of marine-derived piperazine alkaloids: Sources, structures and bioactivities” (Eur J Med Chem, 2024).
# Legend:
# [1] = tested on: L1210; test: Cytotoxicity against mouse L1210 cells assessed as reduction in cell growth; type: functional; settings: read-out: ED50 (the source's name)
# [2] = tested on: MCF7; test: Cytotoxicity against human MCF7 cells assessed as reduction in cell viability; type: functional, cell-based
# [3] = tested on: PC-3; test: Cytotoxicity against human PC-3 cells assessed as reduction in cell viability; type: functional, cell-based
# [4] = tested on: U-937; test: Cytotoxicity against human U-937 cells assessed as reduction in cell viability; type: functional, cell-based
# [5] = Cytotoxicity against mouse FM3A tsFT210 cells assessed as inhibition of cell growth; type: functional, cell-based
# [6] = Cytotoxicity against human Huh7.5 cells assessed as reduction in cell viability incubated for 72 hrs by CCK-8 assay; type: toxicity, cell-based, Huh-7.5
# [7] = tested on: UMUC3; test: Cytotoxicity against human UMUC3 cells assessed as reduction in cell viability by MTT assay; type: functional, cell-based
# [8] = tested on: A549; test: Cytotoxicity against human A549 cells assessed as reduction in cell viability by MTT assay; type: functional, cell-based
# [9] = tested on: HGC-27; test: Cytotoxicity against human HGC-27 cells assessed as reduction in cell viability by MTT assay; type: functional, cell-based
# [10] = tested on: P388; test: Cytotoxicity against mouse P388 cells assessed as cell growth inhibition; type: functional; settings: read-out: ED50 (the source's name)
# [11] = tested on: HCT-116; test: Antiproliferative activity against human HCT-116 cells assessed as reduction in cell viability incubated for 24 hrs by MTT assay; type: functional, cell-based; settings: HCT-116, 24 h
# [12] = tested on: QG-56; test: Cytotoxicity against human QG-56 cells assessed as reduction in cell growth incubated for 24 hrs by MTT assay; type: functional, cell-based; settings: QG-56, 24 h
# [13] = tested on: DU-145; test: Cytotoxicity against human DU-145 cells assessed as cell growth inhibition measured after 48 hrs by MTT assay; type: functional, cell-based; settings: DU-145, 48 h
# [14] = tested on: KB; test: Cytotoxicity against human KB cells assessed as inhibition of cell growth; type: functional, cell-based
# [15] = tested on: BC; test: Cytotoxicity against human BC cells assessed as inhibition of cell growth; type: functional, cell-based
# [16] = tested on: HepG2; test: Cytotoxicity against human HepG2 cells assessed as reduction in cell viability incubated for 72 hrs by SRB assay; type: functional, cell-based; settings: HepG2, 72 h
# [17] = tested on: SF-268; test: Cytotoxicity against human SF-268 cells assessed as reduction in cell viability incubated for 72 hrs by SRB assay; type: functional, cell-based; settings: SF-268, 72 h
# [18] = tested on: BGC-823; test: Cytotoxicity against human BGC-823 cells assessed as reduction in cell growth measured after 72 hrs by MTT assay; type: functional, cell-based; settings: BGC-823, 72 h
# [19] = tested on: HeLa; test: Cytotoxicity against human HeLa cells assessed as reduction in cell viability measured for 24 hrs by MTT assay; type: functional, cell-based
# [20] = tested on: MCF7; test: Cytotoxicity against human MCF7 cells assessed as reduction in cell growth measured after 72 hrs by MTT assay; type: functional, cell-based; settings: MCF7, 72 h
# [21] = tested on: HL-60; test: Antiproliferative activity against human HL-60 cells assessed as reduction in cell growth incubated for 72 hrs by MTT assay; type: functional, cell-based; settings: HL-60, 72 h
# [22] = tested on: K562; test: Antiproliferative activity against human K562 cells assessed as reduction in cell growth incubated for 72 hrs by MTT assay; type: functional, cell-based; settings: K562, 72 h
# [23] = tested on: MKN-1; test: Cytotoxicity against human MKN-1 cells assessed as reduction in cell viability; type: functional, cell-based
# [24] = tested on: NCI-H460; test: Cytotoxicity against human NCI-H460 cells assessed as reduction in cell growth incubated for 48 hrs by SRB assay; type: functional, cell-based; settings: NCI-H460, 48 h
# [25] = tested on: HepG2; test: Cytotoxicity against human HepG2 cells assessed as reduction in cell growth incubated for 48 hrs by SRB assay; type: functional, cell-based; settings: HepG2, 48 h
# [26] = tested on: HepG2; test: Cytotoxicity against human HepG2 cells assessed as reduction in cell growth incubated for 72 hrs by SRB assay; type: functional, cell-based; settings: HepG2, 72 h
# [27] = tested on: MCF7; test: Cytotoxicity against human MCF7 cells assessed as reduction in cell growth incubated for 48 hrs by SRB assay; type: functional, cell-based; settings: MCF7, 48 h
# [28] = tested on: MCF7; test: Cytotoxicity against human MCF7 cells assessed as reduction in cell growth incubated for 72 hrs by SRB assay; type: functional, cell-based; settings: MCF7, 72 h
# [29] = tested on: SF-268; test: Cytotoxicity against human SF-268 cells assessed as reduction in cell growth incubated for 72 hrs by SRB assay; type: functional, cell-based; settings: SF-268, 72 h
# [30] = tested on: SF-268; test: Cytotoxicity against human SF-268 cells assessed as reduction in cell growth incubated for 48 hrs by SRB assay; type: functional, cell-based; settings: SF-268, 48 h
# [31] = tested on: NCI-H460; test: Cytotoxicity against human NCI-H460 cells assessed as reduction in cell growth incubated for 72 hrs by SRB assay; type: functional, cell-based; settings: NCI-H460, 72 h
# [32] = tested on: HEK293; test: Cytotoxicity against HEK293 cells assessed as cell growth inhibition; type: functional, cell-based; settings: Homo sapiens
# [33] = tested on: HCT-116; test: Cytotoxicity against human HCT-116 cells assessed as reduction in cell viability incubated for 24 hrs by MTT assay; type: functional, cell-based; settings: HCT-116, 24 h
# [34] = tested on: RKO; test: Cytotoxicity against human RKO cells assessed as inhibition of cell growth measured after 48 hrs by MTT assay; type: functional, cell-based
smiles,measurement,setting,value
CN1C[C@H](c2c[nH]c3cc(Br)ccc23)NC[C@H]1c1c[nH]c2cc(Br)ccc12,EC50,[1],10 µg/mL
COc1ccc2c3c([nH]c2c1)[C@H](C=C(C)C)N1C(=O)[C@]2(O)CCCN2C(=O)[C@@]1(O)[C@H]3OC,IC50,[2],7.6 µM
CS[C@]1(CO)C(=O)N2C3C(=CC=CC3O)C[C@@]2(SC)C(=O)N1C (stereo not given in full),IC50,[3],15.9 µM
same,IC50,[4],0.52 µM
same,IC50,[5],89.8 µg/mL
CO[C@@H]1CC(=O)[C@@H]2C[C@@]34SS[C@]5(C[C@H]6C(=O)CC(=O)[C@H](O)[C@H]6N5C3=O)C(=O)N4[C@@H]2[C@H]1O,IC50 at 72 h,[6],9.52 µM
CC(C)C[C@H]1NC(=O)[C@H](CCC(N)=O)n2c1nc1ccccc1c2=O,IC50,[7],7.2 µM
same,IC50,[8],6 µM
same,IC50,[9],6.2 µM
CS[C@H]1C(=O)N2[C@H]3Nc4ccccc4[C@@]3(c3c[nH]c4ccccc34)C[C@]2(SC)C(=O)N1C,EC50,[10],20 µg/mL
COc1cc2c(cc1O)CCNC21CS[C@@H]2c3c(OC(C)=O)c(C)c4c(c3[C@H](COC1=O)N1[C@@H]2[C@H]2c3c(cc(C)c(OC)c3O)C[C@@H]([C@@H]1C#N)N2C)OCO4 (stereo not given in full),IC50,[11],0.0004 µM
same,IC50,[12],0.0018 µM
same,IC50,[13],0.00066 µM
same,IC50,[14],0.034 nM
same,IC50,[15],0.0025 µM
C=CC(C)(C)c1[nH]c2ccccc2c1/C=C1\NC(=O)[C@@]2(CC[C@@]3(O)c4cc(OC)cc(O)c4C(=O)c4c(O)cc(C)c2c43)NC1=O,IC50,[16],15 µM
same,IC50,[17],12.5 µM
C=CC(C)(C)[C@@]12C[C@H]3C(=O)N[C@@H](Cc4ccc(O)cc4)C(=O)N3[C@@H]1N([C@H]1O[C@]3(C[C@@H]1NC(=O)/C=C/C(C)CC(C)CCCCCC)[C@@H]1O[C@@H]1[C@](O)(CC(C)=O)[C@@H]1O[C@@H]13)c1ccccc12 (stereo not given in full),IC50,[18],16.6 µM
same,IC50,[19],17.7 µM
same,IC50,[20],8 µM
same,IC50,[21],12.1 µM
same,IC50,[22],19.9 µM
CO[C@H]1c2c([nH]c3ccccc23)[C@H](C=C(C)C)N2C(=O)[C@@H]3CCCN3C(=O)[C@@]12O,IC50,[23],20.7 µM
same,IC50,[2],10.8 µM
C=CC(C)(C)[C@@]12C[C@H]3C(=O)N[C@@H](Cc4ccccc4)C(=O)N3[C@@H]1N([C@H]1O[C@]3(C[C@@H]1NC(=O)/C=C/C(C)CC(C)CCCCCC)[C@@H]1O[C@@H]1[C@](O)(CC(C)=O)[C@@H]1O[C@@H]13)c1ccccc12 (stereo not given in full),IC50,[18],8 µM
same,IC50,[19],9.5 µM
same,IC50,[20],5.4 µM
same,IC50,[21],5.4 µM
same,IC50,[22],11.4 µM
CC(=O)O[C@H]1C=CC=C2C[C@]34SS[C@](CO)(C(=O)N3[C@@H]21)N(C)C4=O,IC50,[24],0.32 µM
same,IC50,[25],0.49 µM
same,IC50,[26],0.32 µM
same,IC50,[27],0.22 µM
same,IC50,[28],0.22 µM
same,IC50,[29],0.25 µM
same,IC50,[30],0.25 µM
same,IC50,[31],0.49 µM
same,IC50,[32],4.49 µM
same,IC50,[33],0.89 µM
same,IC50,[34],1.24 µM
